Data taken from ChEMBL document CHEMBL1135276, “Novel estimation of lipophilic behaviour of polychlorinated biphenyls” (Bioorg Med Chem Lett, 2002).

Assay: Partition coefficient (logP)
Conditions: octanol/water
`Clc1ccc(-c2ccc(Cl)cc2)cc1` gave a logP of 5.58.
`Clc1ccc(Cl)c(-c2cc(Cl)c(Cl)cc2Cl)c1` showed a logP of 6.49.
`Clc1cc(Cl)c(-c2cc(Cl)c(Cl)cc2Cl)cc1Cl` [2,2',4,4',5,5'-HEXACHLOROBIPHENYL] gave a logP of 6.8.
Work on `Clc1ccc(-c2c(Cl)cc(Cl)c(Cl)c2Cl)c(Cl)c1Cl` yielded a logP of 6.99.
In the case of `Clc1ccccc1-c1ccccc1Cl`, the logP is reported as 4.73.
With `Clc1ccc(Cl)c(-c2ccccc2Cl)c1` the logP was 5.6.
With `Clc1cc(Cl)c(Cl)c(-c2c(Cl)c(Cl)cc(Cl)c2Cl)c1Cl` the logP was 7.15.
With `Clc1cc(-c2cc(Cl)c(Cl)c(Cl)c2)cc(Cl)c1Cl` the logP was 7.55.
With `Clc1c(Cl)c(Cl)c(-c2ccccc2)c(Cl)c1Cl` the logP was 6.52.
